Assay results as given in patent publication US20140073628A1, “BENZOXAZEPINES ASN INHIBITORS OF P13K/M TOR AND METHODS OF THEIR USE AND MANUFACTURE” (priority 2010, published 2014).

What follows are compounds tested against mTOR/GbL/Raptor (mTORC1) (Homo sapiens, UniProt P42345) (assay: mTOR/GbL/Raptor (mTORC1) ELISA assay). Conditions: phosphorylation of 4E-BP1; 0.2 nM mTORC1, 10 μM ATP, 50 nM NHis-tagged 4E-BP1.
Format: biochemical
Protocol: mTOR/GbL/Raptor (mTORC1) ELISA Assay
The measurement of mTORC1 enzyme activity was performed in an ELISA assay format following the phosphorylation of 4E-BP1 protein. All experiments were performed in the 384-well format. Generally, 0.5 μL DMSO containing varying concentrations of the test compound was mixed with 15 μL enzyme solution. Kinase reactions were initiated with the addition of 15 μL of substrates-containing solution. The assay conditions were as follows; 0.2 nM mTORC1, 10 μM ATP and 50 nM NHis-tagged 4E-BP1 in 20 mM Hepes, pH 7.2, 1 mM DTT, 50 mM NaCl, 10 mM MnCl2, 0.02 mg/mL BSA, 0.01% CHAPS, 50 mM β-glycerophosphate. Following an incubation of 120 minutes at ambient temperature, 20 μL of the reaction volume was transferred to a Ni-Chelate-coated 384-well plate. The binding step of the 4E-BP1 protein proceeded for 60 minutes, followed by washing 4 times each with 50 μL of Tris-buffered saline solution (TBS). Anti-phospho-4E-BP1 rabbit-IgG (20 μL, 1:5000) in 5% BSA-TBST (0.2% Tween-20 in TBS) was added and further incubated for 60 minutes. Incubation with a secondary HRP-tagged anti-IgG was similarly performed after washing off the primary antibody (4 washes of 50 μL). Following the final wash step with TBST, 20 μL of SuperSignal ELISA Femto (Pierce Biotechnology) was added and the luminescence measured using an EnVision plate reader.

IC50 | SMILES
0.5 to 2.5 µM | COc1ccc2c(N3CCOc4ccc(-c5ccc6[nH]cnc6c5)cc4C3)nc(CN(C)C)nc2c1 [Compound 37, 1-{4-[7-(1H-benzimidazol-5-yl)-2,3-dihydro-1,4-benzoxazepin-4(5H)-yl]-7-(methyloxy)quinazolin-2-yl}-N,N-dimethylmethanamine]
≤ 0.1 µM | Cc1nc2cc(-c3ccc4c(c3)CN(c3nc(NCCCN(C)C)nc(C)c3Cc3ccc(F)cc3)CCO4)ccc2[nH]1 [Compound 13, N′-{5-[(4-fluorophenyl)methyl]-4-methyl-6-[7-(2-methyl-1H-benzimidazol-5-yl)-2,3-dihydro-1,4-benzoxazepin-4(5H)-yl]pyrimidin-2-yl}-N,N-dimethylpropane-1,3-diamine]
≤ 0.1 µM | Cc1nc2cc(-c3ccc4c(c3)CN(c3nc(CF)nc5c3CC(C)(C)CC5)CCO4)ccc2[nH]1 [Compound 25, 4-[2-(fluoromethyl)-6,6-dimethyl-5,6,7,8-tetrahydroquinazolin-4-yl]-7-(2-methyl-1H-benzimidazol-5-yl)-2,3,4,5-tetrahydro-1,4-benzoxazepine]
≤ 0.1 µM | C=CCc1c(C)nc(N)nc1N1CCOc2ccc(-c3ccc4nc(C)[nH]c4c3)cc2C1 [Compound 35, 4-methyl-6-[7-(2-methyl-1H-benzimidazol-5-yl)-2,3-dihydro-1,4-benzoxazepin-4(5H)-yl]-5-prop-2-en-1-ylpyrimidin-2-amine]
0.1 to 0.5 µM | Cc1nc2cc(-c3ccc4c(c3)CN(c3nc(CN(C)C)nc(C)c3-c3ccccc3)CCO4)ccc2[nH]1 [Compound 21, N,N-dimethyl-1-{4-methyl-6-[7-(2-methyl-1H-benzimidazol-5-yl)-2,3-dihydro-1,4-benzoxazepin-4(5H)-yl]-5-phenylpyrimidin-2-yl}methanamine]
≤ 0.1 µM | C=CCc1c(C)nc(CN(C)C)nc1N1CCOc2ccc(-c3ccc4nc(C)[nH]c4c3)cc2C1 [Compound 33, N,N-dimethyl-1-{4-methyl-6-[7-(2-methyl-1H-benzimidazol-6-yl)-2,3-dihydro-1,4-benzoxazepin-4(5H)-yl]-5-prop-2-en-1-ylpyrimidin-2-yl}methanamine]
0.5 to 2.5 µM | COC(=O)Cc1c(C)nc(CN(C)C)nc1N1CCOc2ccc(-c3ccc4nc(C)[nH]c4c3)cc2C1 [Compound 6, methyl {2-[(dimethylamino)methyl]-4-methyl-6-[7-(2-methyl-1H-benzimidazol-5-yl)-2,3-dihydro-1,4-benzoxazepin-4(5H)-yl]pyrimidin-5-yl}acetate]
≤ 0.1 µM | Cc1nc2cc(-c3ccc4c(c3)CN(c3nc(NCCN(C)C)nc(C)c3Cc3ccc(F)cc3)CCO4)ccc2[nH]1 [Compound 11, N′-{5-[(4-fluorophenyl)methyl]-4-methyl-6-[7-(2-methyl-1H-benzimidazol-5-yl)-2,3-dihydro-1,4-benzoxazepin-4(5H)-yl]pyrimidin-2-yl}-N,N-dimethylethane-1,2-diamine]
0.5 to 2.5 µM | Cc1nc2cc(-c3ccc4c(c3)CN(c3nc(CN(C)C)nc(C)c3CCCF)CCO4)ccc2[nH]1 [Compound 22, 1-{5-(3-fluoropropyl)-4-methyl-6-[7-(2-methyl-1H-benzimidazol-5-yl)-2,3-dihydro-1,4-benzoxazepin-4(5H)-yl]pyrimidin-2-yl}-N,N-dimethylmethanamine]
≤ 0.1 µM | Cc1nc2cc(-c3ccc4c(c3)CN(c3nc(NC5CNC5)nc(C)c3Cc3ccc(F)cc3)CCO4)ccc2[nH]1 [Compound 14, N-azetidin-3-yl-5-[(4-fluorophenyl)methyl]-4-methyl-6-[7-(2-methyl-1H-benzimidazol-5-yl)-2,3-dihydro-1,4-benzoxazepin-4(5H)-yl]pyrimidin-2-amine]
≤ 0.1 µM | Cc1nc2cc(-c3ccc4c(c3)CN(c3cc(N)ncc3C#N)CCO4)ccc2[nH]1 [Compound 28, 6-amino-4-[7-(2-methyl-1H-benzimidazol-5-yl)-2,3-dihydro-1,4-benzoxazepin-4(5H)-yl]pyridine-3-carbonitrile]
0.5 to 2.5 µM | Cc1nc2ccc(-c3ccc4c(c3)CN(c3nc(CN(C)C)nc(C)c3C)CCO4)cc2[nH]1 [Compound 2, I-{4,5-dimethyl-6-[7-(2-methyl-1H-benzimidazol-6-yl)-2,3-dihydro-1,4-benzoxazepin-4(5H)-yl]pyrimidin-2-yl}-N,N-dimethylmethanamine]

The remaining lines, values behind:

SMILES | IC50
CC(=O)OCc1nc(C)c(C(C)C)c(N2CCOc3ccc(-c4ccc5nc(C)[nH]c5c4)cc3C2)n1 [Compound 4, {4-methyl-6-[7-(2-methyl-1H-benzimidazol-5-yl)-2,3-dihydro-1,4-benzoxazepin-4(5H)-yl]-5-(1-methylethyl)pyrimidin-2-yl}methyl acetate] | ≤ 0.1 µM
COC(=O)Nc1nc2cc(-c3ccc4c(c3)CN(c3nc(N)nc(C)c3C(C)C)CCO4)ccc2[nH]1 [Compound 17, methyl (5-{4-[2-amino-6-methyl-5-(1-methylethyl)pyrimidin-4-yl]-2,3,4,5-tetrahydro-1,4-benzoxazepin-7-yl}-1H-benzimidazol-2-yl)carbamate] | ≤ 0.1 µM
COc1ccc(-c2ccc3c(c2)CN(c2nc(CN(C)C)nc(C)c2C(C)C)CCO3)cc1NS(C)(=O)=O [Compound 10] | 0.1 to 0.5 µM
Cc1nc(N)nc(N2CCOc3ccc(-c4cnc5[nH]cnc5c4)cc3C2)c1C(C)C [Compound 52, 4-[7-(3H-imidazo[4,5-b]pyridin-6-yl)-2,3-dihydro-1,4-benzoxazepin-4(5H)-yl]-6-methyl-5-(1-methylethyl)pyrimidine-2-amine] | ≤ 0.1 µM
COc1ccc2c(N3CCOc4ccc(-c5cnc6[nH]cnc6c5)cc4C3)nc(CN(C)C)nc2c1 [Compound 49, 1-{4-[7-(3H-imidazo[4,5-b]pyridin-6-yl)-2,3-dihydro-1,4-benzoxazepin-4(5H)-yl]-7-(methyloxy)quinazolin-2-yl}-N,N-dimethylmethanamine] | 0.5 to 2.5 µM
Cc1nc(N)nc(N2CCOc3ccc(-c4ccc5[nH]cnc5c4)cc3C2)c1C(C)C [Compound 40, 4-[7-(1H-benzimidazol-5-yl)-2,3-dihydro-1,4-benzoxazepin-4(5H)-yl]-6-methyl-5-(1-methylethyl)pyrimidin-2-amine] | ≤ 0.1 µM
Cc1nc2ccc(-c3cc(F)c4c(c3)CN(c3nc(N)nc(C)c3C(C)C)CCO4)cc2[nH]1 [Compound 51, 4-[9-fluoro-7-(2-methyl-1H-benzimidazol-6-yl)-2,3-dihydro-1,4-benzoxazepin-4(5H)-yl]-6-methyl-5-(1-methylethyl)pyrimidin-2-amine] | ≤ 0.1 µM
COCCOc1cc(-c2ccc3c(c2)CN(c2nc(CN(C)C)nc4c2CC(C)(C)CC4)CCO3)ccc1OC [Compound 7, 1-(6,6-dimethyl-4-{7-[4-(methyloxy)-3-{[2-(methyloxy)ethyl]oxy}phenyl]-2,3-dihydro-1,4-benzoxazepin-4(5H)-yl}-5,6,7,8-tetrahydroquinazolin-2-yl)-N,N-dimethylmethanamine] | 0.1 to 0.5 µM
Cc1nc2cc(-c3ccc4c(c3)CN(c3nc(N)nc(C)c3C(C)C)CCO4)cnc2[nH]1 [Compound 50, 4-methyl-5-(1-methylethyl)-6-[7-(2-methyl-3H-imidazo[4,5-b]pyridin-6-yl)-2,3-dihydro-1,4-benzoxazepin-4(5H)-yl]pyrimidin-2-amine] | ≤ 0.1 µM
COc1ccc(-c2ccc3c(c2)CN(c2nc(CN(C)C)nc4c2CC(C)(C)CC4)CCO3)cc1S(C)(=O)=O [Compound 9, 1-(6,6-dimethyl-4-{7-[4-(methyloxy)-3-(methylsulfonyl)phenyl]-2,3-dihydro-1,4-benzoxazepin-4(5H)-yl}-5,6,7,8-tetrahydroquinazolin-2-yl)-N,N-dimethylmethanamine] | 0.5 to 2.5 µM
COc1ccc(-c2ccc3c(c2)CN(c2nc(CN(C)C)nc4c2CC(C)(C)CC4)CCO3)cc1C(C)=O [Compound 18, 1-[5-(4-{2-[(dimethylamino)methyl]-6,6-dimethyl-5,6,7,8-tetrahydroquinazolin-4-yl}-2,3,4,5-tetrahydro-1,4-benzoxazepin-7-yl)-2-(methyloxy)phenyl]ethanone] | 0.1 to 0.5 µM
COc1ccc(-c2ccc3c(c2)CN(c2nc(CN(C)C)nc4c2CC(C)(C)CC4)CCO3)cc1OC(F)F [Compound 8, 1-{4-[7-{3-[(difluoromethyl)oxy]-4-(methyloxy)phenyl}-2,3-dihydro-1,4-benzoxazepin-4(5H)-yl]-6,6-dimethyl-5,6,7,8-tetrahydroquinazolin-2-yl}-N,N-dimethylmethanamine] | 0.1 to 0.5 µM
